Experimental findings from patent publication US9096582B2, “Gamma secretase modulators” (MERCK SHARP & DOHME CORP, priority 2011, dated 2015) are described below.

Structures are written as SMILES.

By IC50 is commonly meant the concentration that inhibits the measured activity by half. Read a low IC50 as higher potency.

One test deals with T1, γ-secretase (Homo sapiens, UniProt P49768).
T1 construct: Human embryonic kidney (HEK) 293 cells stably transfected with APPsw-lon in pcDNA3.1 vector; endogenous in cells; host or cells: HEK293 cells stably transfected with APPsw-lon (substrate only) in pcDNA3.1
The test is described as follows: Cell based γ-secretase assay (Aβ42 in conditioned media, MSD sandwich immunoassay). Conditions: HEK 293 cells stably transfected with APPsw-lon; 5 hrs treatment; means of two independent experiments. The protocol:
Cell Based γ-Secretase Assay (In Vitro Assay Method)
Human embryonic kidney (HEK) 293 cells stably transfected with APPsw-lon in pcDNA3.1 vector (Invitrogen) were treated with gamma secretase modulator (GSM) compounds (see Table below) for 5 hrs. Aβ in conditioned media was measured using MesoScale Discovery (MSD) technology based sandwich immunoassays. Aβ42 was measured using a pair of labeled antibodies TAG-G2-11 (described in Ida, N. et al., Journal of Biological Chemistry, 1996, 271, p. 22908-22914) and biotin-4G8 (Covance); γ-secretase activity is expressed as the concentration of compound producing 50% inhibition of the enzyme activity. The data presented below in the Table were the means of two independent experiments.

The test system of a further test is Rat CSF Aβ42. Briefly: Cerebrospinal fluid (CSF) Aβ analysis (in vivo assay method). Conditions: male CD rats; oral, 30 mg/kg in 20% hydroxypropyl β-cyclodextrin; CSF collected three hours after dosing. The protocol:
Cerebrospinal Fluid (CSF) Aβ Analysis (In Vivo Assay Method)
Male CD rats (100 g; Charles River Laboratories) were orally administered a GSM compound (formulated in 20% hydroxypropyl β-cyclodextin; 5 ml/kg). Three hours later, the animals were euthanized with excess CO2, and CSF was immediately collected from the cisterna magna and frozen on dry ice; only clear samples were analyzed. Rat CSF Aβ42 was analyzed using AlphaLISA Amyloid Assay kits (Perkin-Elmer) according to the manufacturer's instructions. In vivo activity of the tested GSM compounds is expressed as the percentage of Aβ42 reduction in CSF after administration of the compound and is presented in the Table.

Take `COc1cc(-c2noc3c2CCCC3NCc2ccc(F)cc2)ccc1-n1cnc(C)c1` (racemic): on γ-secretase, the IC50 is 131 nM.

For `COc1cc(-c2noc3c2CCCC3N(C)Cc2ccc(F)cc2)ccc1-n1cnc(C)c1` (racemic), inhibition at γ-secretase was half-maximal at 319 nM (IC50).

For `CNC1CCCc2c(-c3ccc(-n4cnc(C)c4)c(OC)c3)noc21` (racemic), on γ-secretase, the IC50 came to 12200 nM.

`COc1cc(-c2noc3c2CCCC3NC2CCCCC2)ccc1-n1cnc(C)c1` (racemic) gave an IC50 on γ-secretase of 311 nM.

Regarding `COc1cc(-c2noc3c2CCCC3NCC(F)(F)F)ccc1-n1cnc(C)c1` (racemic), the IC50 against γ-secretase worked out at 464 nM.

Regarding `COc1cc(-c2noc3c2CCCC3N[C@H](C)c2ccc(F)cc2)ccc1-n1cnc(C)c1` (mixture of isomers), the IC50 at γ-secretase is 255 nM.

In turn, `COc1cc(-c2noc3c2CCCC3(O)Cc2cc(F)cc(F)c2)ccc1-n1cnc(C)c1` (racemic) gave an IC50 at γ-secretase of 150 nM.

`COc1cc(-c2noc3c2CCCC3Oc2cc(F)cc(F)c2)ccc1-n1cnc(C)c1` (racemic) registered a 50% inhibitory concentration (IC50) against γ-secretase of 205 nM.

On to `COc1cc(-c2noc3c2CCCC3OCc2cc(F)cc(F)c2)ccc1-n1cnc(C)c1` (racemic) [7-(3,5-Difluorobenzyloxy)-3-(3-methoxy-4-(4-methyl-1H-imidazol-1-yl)phenyl)-4,5,6,7-tetrahydrobenzo[d]isoxazole], for which the IC50 on γ-secretase worked out at 514 nM.

Turning to `COc1cc(-c2noc3c2CCCC3(O)c2cc(F)cc(F)c2)ccc1-n1cnc(C)c1` (racemic) [7-(3,5-Difluorophenyl)-3-(3-methoxy-4-(4-methyl-1H-imidazol-1-yl)phenyl)-4,5,6,7-tetrahydrobenzo[d]isoxazol-7-ol], the IC50 against γ-secretase was found to be 189 nM. The “% CSF Aβ42 Reduction After 30 mg/kg Dosing” value in the test on Rat CSF Aβ42 is 19%.

Regarding `COc1cc(-c2noc3c2CCCC3c2cc(F)cc(F)c2)ccc1-n1cnc(C)c1` (racemic) [7-(3,5-Difluorophenyl)-3-(3-methoxy-4-(4-methyl-1H-imidazol-1-yl)phenyl)-4,5,6,7-tetrahydrobenzo[d]isoxazole], the IC50 against γ-secretase was found to be 113 nM. Also, in the test with Rat CSF Aβ42, the “% CSF Aβ42 Reduction After 30 mg/kg Dosing” value came to 0%.

Molecule `COc1cc(-c2noc3c2CCCC3Oc2ccc(F)cc2)ccc1-n1cnc(C)c1` (racemic) [7-(4-Fluorophenoxy)-3-(3-methoxy-4-(4-methyl-1H-imidazol-1-yl)phenyl)-4,5,6,7-tetrahydrobenzo[d]isoxazole] yielded an IC50 at γ-secretase of 295 nM. This counts as sub-micromolar.

Consider `COc1cc(-c2noc3c2CCCC3Nc2ccc(F)cc2)ccc1-n1cnc(C)c1` (single isomer, unassigned) [drawing 25, N-(4-Fluorophenyl)-3-(3-methoxy-4-(4-methyl-1H-imidazol-1-yl)phenyl)-4,5,6,7-tetrahydrobenzo[d]isoxazol-7-amine], for which, on γ-secretase, the IC50 is 39.4 nM. Besides, the “% CSF Aβ42 Reduction After 30 mg/kg Dosing” value in the test on Rat CSF Aβ42 is listed as 58%.

`COc1cc(-c2noc3c2CCCC3Nc2ccc(F)cc2)ccc1-n1cnc(C)c1` (single isomer, unassigned) [drawing 26, N-(4-Fluorophenyl)-3-(3-methoxy-4-(4-methyl-1H-imidazol-1-yl)phenyl)-4,5,6,7-tetrahydrobenzo[d]isoxazol-7-amine] gave an IC50 against γ-secretase of 403 nM. Moreover, the “% CSF Aβ42 Reduction After 30 mg/kg Dosing” value in the test with Rat CSF Aβ42 amounted to 37%.

At γ-secretase, `COc1cc(-c2noc3c2CCCC3NCc2cc(F)cc(F)c2)ccc1-n1cnc(C)c1` (single isomer, unassigned) [drawing 33] came in with an IC50 of 644 nM. The “% CSF Aβ42 Reduction After 30 mg/kg Dosing” value in the test with Rat CSF Aβ42 was 7%.

As to `COc1cc(-c2noc3c2CCCC3NCc2cc(F)cc(F)c2)ccc1-n1cnc(C)c1` (single isomer, unassigned) [drawing 34], the IC50 against γ-secretase turned out to be 29.4 nM. Further, the “% CSF Aβ42 Reduction After 30 mg/kg Dosing” value in the test on Rat CSF Aβ42 came to 20%.
